Results from US20020065419A1, “Cyclobutenedione compounds” (priority 2000, published 2002).

Tests used:
[1] = system: aortic rings of New Zealand rabbits; test: Protective vascular effects with respect to endothelial dysfunction caused by a system generating O2- (XO-Hypo), aortic rings; conditions: compound at 10^-7 M; XO 3 mU/ml, Hypo 10^-4 M; rabbit aortic rings
[2] = system: thoracic aorta rings of Wistar rat; test: Vascular protective effects with respect to endothelial dysfunction caused by an inhibitor of NOS (LNA), aortic rings; conditions: compound at 10^-7 M, LNA 3x10^-7 M, relaxation due to ACh
Source text: Under standard in vitro conditions, relaxation of aortic rings caused by acetylcholine (ACh), which relaxation is entirely dependent on the presence of endothelium, reflects the production of NO (stimulated by ACh), which, by diffusing to smooth muscle cells, brings about arterial relaxation (Nature, 1980, 288, 373).
the first model consists of causing inhibition of the relaxation due to ACh by blocking the enzymatic activity (endothelial NOS) responsible for the production of NO;
The thoracic aorta of a Wistar rat (325-375 g), anaesthetised by the intraperitoneal route using pentobarbital sodium (30 mg/kg), is removed and dissected into rings having a length of 3 mm. Each ring is suspended from an isometric tension sensor connected to a recording system and the initial tension applied is 2.5 g. […]
After a 90-minute stabilisation period, the preparations are contracted using phenylephrine (PHE 10^−6 M) and relaxed by adding 10^−5 M of acetylcholine in order to verify the integrity of the endothelial layer. […] The preparations are again contracted using phenylephrine and, after 30 minutes, the relaxations due to acetylcholine (ACh-10^−8 M to 10^−5 M) are assessed in the presence of indomethacin (10^−5 M).
The relaxation values are expressed as a percentage relative to the maximum contraction caused by PHE. […]

rat aortic rings = test: Aortic production of cGMP stimulated by ACh in the presence of LNA; conditions: compound at 3x10 -M (so in the source), 30-minute incubation, ACh 10^-5 M 1 minute, LNA 3x10^-6 M
Method: By diffusing to the smooth muscle cells, the NO produced by the endothelial cells activates soluble guanylate cyclase, which brings about an increase in cyclic GMP, which is responsible for relaxation.
The rat aortic rings are prepared as previously. The effects of 30-minute incubation of compounds of the invention at different concentrations are assessed on the production of cGMP stimulated by ACh (10^−5 M—1 minute) in the presence of LNA (3×10^−6 M). The said experiments are carried out in the presence of isobutylmethylxanthine (10^−5 M) in order to avoid degradation of the cGMP by phosphodiesterases. The rings are frozen in liquid nitrogen and maintained at −80° C. until the assay is carried out. The cGMP content is assessed by radioimmunoassay and expressed in relation to the amount of proteins contained in the tissue (assay by the Bradford method).

## O=c1c(NCCN2CCC(COc3ccccc3)CC2)c(N2CCc3ccccc32)c1=O [Example 5, 3-(2,3-Dihydro-1H-indol-1-yl)-4-({2-[4-(Phenoxymethyl)-1-piperidinyl]-ethyl}amino)-3-cyclobutene-1,2-dione and its methanesulphonate]
[1]
  inhibition of the endothelial dysfunction caused by the XO-Hypo combination: 17%
[2]
  inhibition of the endothelial dysfunction caused by LNA: 27%
Rat aortic rings
  increase of the production of cGMP stimulated by ACh in the presence of LNA: 39%
